{"source": "paper PMC11374673", "about": "“Discovery of isoquinoline sulfonamides as allosteric gyrase inhibitors with activity against fluoroquinolone-resistant bacteria” (Nature Chemistry, 2024)", "key": {"[1]": {"tested_on": "E. coli W3110", "assay": "MIC by broth microdilution", "assay_type": "cell-based, Escherichia coli", "procedure": "(§1) MIC was determined by broth microdilution. Single-colony cultures were grown to exponential phase (OD600 of 0.5) aerobically at 37 °C. In case of strains from the Keio collection, 50 µg ml^−1 kanamycin was supplemented to the media to ascertain a homogeneous population. The bacterial suspensions were diluted 100-fold in CAMHB and 50 µl was added to a twofold serial dilution series of test compounds (50 µl per well) in polypropylene 96-well microtitre plates to reach a volume of 100 µl. The plates were sealed with breathable membranes and incubated overnight at 37 °C with constant shaking (600 r.p.m.)."}, "[2]": {"tested_on": "K. pneumoniae ATCC 29665", "assay": "MIC by broth microdilution", "assay_type": "cell-based, Klebsiella pneumoniae", "conditions": "read-out: MIC K. pneumoniae ATCC 29665", "procedure": "as §1"}, "[3]": {"conditions": "Escherichia coli, W3110, WT, broth microdilution, read-out: MIC E. coli W3110"}, "[4]": {"conditions": "WT, broth microdilution, read-out: MIC E. coli W3110"}, "[5]": {"conditions": "Klebsiella pneumoniae, ATCC29665, broth microdilution"}, "[6]": {"conditions": "Escherichia coli, W3110, follow-up of the 12 library hits, read-out: MIC E. coli"}}, "note": "Where two headings read alike, the source gives them in different places."}
{"smiles": "O=S(=O)(NCCNCc1ccc(-c2cccnc2)cc1)c1ccc2cn[nH]c2c1", "note": "[Compound 50]", "values": [{"measurement": "MIC", "setting": "[1]; [3]", "result": "> 50", "unit": "µM"}, {"measurement": "MIC", "setting": "[1]; [4]", "result": ">50", "unit": "µM"}, {"measurement": "MIC", "setting": "[2]; [5]", "result": "> 50", "unit": "µM"}, {"measurement": "MIC", "setting": "[2]; broth microdilution", "result": ">50", "unit": "µM"}]}
{"smiles": "O=S(=O)(NCCNCc1ccc(-c2ccc3ccccc3c2)cc1)c1cccc2cnccc12", "note": "[Compound 76]", "values": [{"measurement": "MIC", "setting": "[1]; [3]", "result": "> 50", "unit": "µM"}, {"measurement": "MIC", "setting": "[1]; [4]", "result": ">50", "unit": "µM"}, {"measurement": "MIC", "setting": "[2]; [5]", "result": "> 50", "unit": "µM"}, {"measurement": "MIC", "setting": "[2]; broth microdilution", "result": ">50", "unit": "µM"}]}
{"smiles": "O=S(=O)(NCCNC/C=C/c1ccc(-c2cccnc2)cc1)c1cccc2[nH]ncc12", "note": "[SG176]", "values": [{"measurement": "MIC", "setting": "[1]; [6]", "result": "> 50", "unit": "µM"}]}
{"smiles": "O=S(=O)(NCCNCc1ccc(-c2cccnc2)c(F)c1)c1cccc2cnccc12", "note": "[Compound 87]", "values": [{"measurement": "MIC", "setting": "[1]; [3]", "result": 25, "unit": "µM"}, {"measurement": "MIC", "setting": "[2]; [5]", "result": 50, "unit": "µM"}]}
{"smiles": "O=S(=O)(NCCNC/C=C/c1ccc(-c2cccnc2)cc1)c1ccc2[nH]ncc2c1", "note": "[SG170]", "values": [{"measurement": "MIC", "setting": "[1]; [6]", "result": "> 50", "unit": "µM"}]}
{"smiles": "O=S(=O)(NCCNCc1ccc(-c2cccc(F)c2)cc1)c1cccc2cnccc12", "note": "[Compound 66]", "values": [{"measurement": "MIC", "setting": "[1]; [3]", "result": 12.5, "unit": "µM"}, {"measurement": "MIC", "setting": "[2]; [5]", "result": 25, "unit": "µM"}]}
{"smiles": "O=S(=O)(NCCNCCCc1ccc(-c2cccnc2)cc1)c1cccc2cnccc12", "note": "[SG145]", "values": [{"measurement": "MIC", "setting": "[1]; [6]", "result": "> 50", "unit": "µM"}]}
{"smiles": "O=S(=O)(NCCNCc1ccc(-c2ccc(C(F)(F)F)cc2)cc1)c1cccc2cnccc12", "note": "[Compound 64]", "values": [{"measurement": "MIC", "setting": "[1]; [3]", "result": "> 50", "unit": "µM"}, {"measurement": "MIC", "setting": "[1]; [4]", "result": ">50", "unit": "µM"}, {"measurement": "MIC", "setting": "[2]; [5]", "result": "> 50", "unit": "µM"}, {"measurement": "MIC", "setting": "[2]; broth microdilution", "result": ">50", "unit": "µM"}]}
{"smiles": "O=S(=O)(NCCNCc1ccc(-c2cccnc2)cc1)c1ccnc2[nH]ccc12", "note": "[Compound 54]", "values": [{"measurement": "MIC", "setting": "[1]; [3]", "result": "> 50", "unit": "µM"}, {"measurement": "MIC", "setting": "[1]; [4]", "result": ">50", "unit": "µM"}, {"measurement": "MIC", "setting": "[2]; [5]", "result": "> 50", "unit": "µM"}, {"measurement": "MIC", "setting": "[2]; broth microdilution", "result": ">50", "unit": "µM"}]}
{"smiles": "O=C(NCCNCc1ccc(-c2cccnc2)cc1)c1cccc2cnccc12", "note": "[Compound 91]", "values": [{"measurement": "MIC", "setting": "[1]; [3]", "result": "> 50", "unit": "µM"}, {"measurement": "MIC", "setting": "[1]; [4]", "result": ">50", "unit": "µM"}, {"measurement": "antimicrobial activity", "setting": "[1]; relative to parent compound", "result": "loss of activity"}, {"measurement": "MIC", "setting": "[2]; [5]", "result": "> 50", "unit": "µM"}, {"measurement": "MIC", "setting": "[2]; broth microdilution", "result": ">50", "unit": "µM"}]}
{"smiles": "O=S(=O)(NCCNCc1ccc(-c2cccnc2)cc1)c1cccc2[nH]ncc12", "note": "[Compound 49]", "values": [{"measurement": "MIC", "setting": "[1]; [3]", "result": "> 50", "unit": "µM"}, {"measurement": "MIC", "setting": "[1]; [4]", "result": ">50", "unit": "µM"}, {"measurement": "MIC", "setting": "[2]; [5]", "result": "> 50", "unit": "µM"}, {"measurement": "MIC", "setting": "[2]; broth microdilution", "result": ">50", "unit": "µM"}]}
{"smiles": "O=S(=O)(NCCNCc1ccc(-c2cc(Cl)cc(Cl)c2)cc1)c1cccc2cnccc12", "note": "[Compound 75]", "values": [{"measurement": "MIC", "setting": "[1]; [3]", "result": "> 50", "unit": "µM"}, {"measurement": "MIC", "setting": "[1]; [4]", "result": ">50", "unit": "µM"}, {"measurement": "MIC", "setting": "[2]; [5]", "result": "> 50", "unit": "µM"}, {"measurement": "MIC", "setting": "[2]; broth microdilution", "result": ">50", "unit": "µM"}]}
{"smiles": "O=S(=O)(NCCNCc1ccc(-c2ccc3c(c2)OCCO3)cc1)c1cccc2cnccc12", "note": "[Compound 78]", "values": [{"measurement": "MIC", "setting": "[1]; [3]", "result": "> 50", "unit": "µM"}, {"measurement": "MIC", "setting": "[1]; [4]", "result": ">50", "unit": "µM"}, {"measurement": "MIC", "setting": "[2]; [5]", "result": "> 50", "unit": "µM"}, {"measurement": "MIC", "setting": "[2]; broth microdilution", "result": ">50", "unit": "µM"}]}
{"smiles": "O=S(=O)(NCCNCc1ccc(-c2ccc(Cl)c(Cl)c2)cc1)c1cccc2cnccc12", "note": "[Compound 74]", "values": [{"measurement": "MIC", "setting": "[1]; [3]", "result": 25, "unit": "µM"}, {"measurement": "MIC", "setting": "[2]; [5]", "result": "> 50", "unit": "µM"}, {"measurement": "MIC", "setting": "[2]; broth microdilution", "result": ">50", "unit": "µM"}]}
{"smiles": "Cc1ccc(S(=O)(=O)N[C@@H]2C(=O)c3cc(C)ccc3O[C@H]2C)cc1", "note": "[IMI1517570]", "values": [{"measurement": "MIC", "setting": "[1]; [6]", "result": 25, "unit": "µM"}]}
{"smiles": "N#Cc1cccc(-c2ccc(CNCCNS(=O)(=O)c3cccc4cnccc34)cc2)c1", "note": "[Compound 68]", "values": [{"measurement": "MIC", "setting": "[1]; [3]", "result": 12.5, "unit": "µM"}, {"measurement": "MIC", "setting": "[2]; [5]", "result": 25, "unit": "µM"}]}
{"smiles": "CNC(=O)c1ccc(S(=O)(=O)NCCNCc2ccc(-c3cccnc3)cc2)cn1", "note": "[Compound 51]", "values": [{"measurement": "MIC", "setting": "[1]; [3]", "result": "> 50", "unit": "µM"}, {"measurement": "MIC", "setting": "[1]; [4]", "result": ">50", "unit": "µM"}, {"measurement": "MIC", "setting": "[2]; [5]", "result": "> 50", "unit": "µM"}, {"measurement": "MIC", "setting": "[2]; broth microdilution", "result": ">50", "unit": "µM"}]}
